Publication PMC8247773, “Benzohydrazide and Phenylacetamide Scaffolds: New Putative ParE Inhibitors” (Frontiers in Bioengineering and Biotechnology, 2021)
≈ marks a conversion by molar mass, not a printed value.

How the values were obtained:
MRSA (NCIM 5021) [1] = test: Antibacterial susceptibility test, microbroth dilution MIC; type: cell-based, methicillin-resistant Staphylococcus aureus; settings: mean ± SD
[2] = test system: Staphylococcus aureus (NCIM 5022); design: method as in Yele et al., 2020, 2021; settings: ref Yele et al., 2020, 2021; cited from earlier work
MRSA (ATCC43300) [3] = test: Antibacterial susceptibility test, microbroth dilution MIC; type: cell-based, methicillin-resistant Staphylococcus aureus; settings: mean ± SD
[4] = test system: Bacillus subtilis (NCIM 2545); design: method as in Yele et al., 2020, 2021; settings: ref Yele et al., 2020, 2021; cited from earlier work
[5] = test system: Klebsiella pneumonia (NCIM 2706); design: method as in Yele et al., 2020, 2021; settings: ref Yele et al., 2020, 2021; cited from earlier work
[6] = test system: Escherichia coli (NCIM 2567); design: method as in Yele et al., 2020, 2021; settings: ref Yele et al., 2020, 2021; cited from earlier work
[7] = test system: Salmonella typhi (NCIM 2501); design: method as in Yele et al., 2020, 2021; settings: ref Yele et al., 2020, 2021; cited from earlier work
[8] = test system: Mycobacterium tuberculosis (NCIM 2984); design: method as in Yele et al., 2020, 2021; settings: ref Yele et al., 2020, 2021; cited from earlier work
[9] = test system: Pseudomonas aeruginosa (NCIM 2036); design: method as in Yele et al., 2020, 2021; settings: ref Yele et al., 2020, 2021; cited from earlier work
E. coli ParE enzyme = target: T1, E. coli ParE enzyme (Escherichia coli, UniProt P20083); test: E. coli ParE ATPase enzyme inhibition assay (ProFoldin kit, malachite green); type: biochemical; settings: ATPase activity, mean ± SD (n = 3)
T1 construct: purchased ProFoldin, Hudson, United States
Summary of the method: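 E. coli ParE ATPase activity measured as inorganic phosphate released from ATP hydrolysis in the presence of DNA. Reaction ran 1 h at 37°C, quenched with malachite green dye, absorbance read at 650 nm after 5 min. IC50 from non-linear regression against no-enzyme and no-compound controls.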

MRSA (NCIM 5021) [10] = test: Minimum bactericidal concentration (MBC); type: cell-based, methicillin-resistant Staphylococcus aureus
Protocol: (§1) MBC can be defined as the minimum concentration of a compound required to kill the bacteria over a fixed period under precise conditions. […] Colonies were counted, and colony forming unit (CFU) per milliliter was calculated.

MRSA (ATCC43300) [11] = test: Minimum bactericidal concentration (MBC); type: cell-based, methicillin-resistant Staphylococcus aureus
Protocol: as §1

[12] = test system: Staphylococcus epidermis (NCIM 2493); design: method as in Yele et al., 2020, 2021; settings: ref Yele et al., 2020, 2021; cited from earlier work
[13] = test system: Escherichia coli (NCIM 2065); test: Minimum bactericidal concentration (MBC); type: cell-based; settings: E. Coli (NCIM 2065); for MBC/MIC: ratio ≤2 bactericidal, ≥4 tolerance
Protocol: as §1

[14] = test system: Escherichia coli (NCIM 2065); test: Antibacterial susceptibility test, microbroth dilution MIC; type: cell-based; settings: E. Coli (NCIM 2065); mean ± SD
Vero cells [15] = test system: Vero cells
Vero cells [16] = test: In vitro cytotoxicity MTT assay; settings: CC50 Vero cells / IC50
[17] = test system: preformed E. coli biofilm (NCIM 2065); test: E. coli antibiofilm activity (crystal violet); type: cell-based, Escherichia coli; settings: 10× MIC, 24 h

T1 sequence (P20083 whole entry): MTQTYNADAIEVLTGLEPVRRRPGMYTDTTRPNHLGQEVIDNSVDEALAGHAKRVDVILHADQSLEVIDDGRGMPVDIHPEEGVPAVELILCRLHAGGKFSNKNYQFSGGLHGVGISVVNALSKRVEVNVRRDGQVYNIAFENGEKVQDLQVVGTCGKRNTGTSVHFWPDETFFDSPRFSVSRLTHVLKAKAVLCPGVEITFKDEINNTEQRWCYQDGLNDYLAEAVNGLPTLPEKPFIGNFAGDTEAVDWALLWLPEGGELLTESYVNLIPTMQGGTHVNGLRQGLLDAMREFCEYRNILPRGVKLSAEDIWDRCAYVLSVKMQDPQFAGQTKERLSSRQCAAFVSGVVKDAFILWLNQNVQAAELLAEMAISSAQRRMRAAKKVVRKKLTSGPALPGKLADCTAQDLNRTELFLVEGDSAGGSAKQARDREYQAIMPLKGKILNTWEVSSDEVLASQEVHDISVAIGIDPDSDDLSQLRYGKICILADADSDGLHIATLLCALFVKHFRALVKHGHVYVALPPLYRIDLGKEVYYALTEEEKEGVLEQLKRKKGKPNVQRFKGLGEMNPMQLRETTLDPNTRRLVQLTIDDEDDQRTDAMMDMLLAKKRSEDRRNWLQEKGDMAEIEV
T1 sequence (P0AFI2 whole entry, further chain): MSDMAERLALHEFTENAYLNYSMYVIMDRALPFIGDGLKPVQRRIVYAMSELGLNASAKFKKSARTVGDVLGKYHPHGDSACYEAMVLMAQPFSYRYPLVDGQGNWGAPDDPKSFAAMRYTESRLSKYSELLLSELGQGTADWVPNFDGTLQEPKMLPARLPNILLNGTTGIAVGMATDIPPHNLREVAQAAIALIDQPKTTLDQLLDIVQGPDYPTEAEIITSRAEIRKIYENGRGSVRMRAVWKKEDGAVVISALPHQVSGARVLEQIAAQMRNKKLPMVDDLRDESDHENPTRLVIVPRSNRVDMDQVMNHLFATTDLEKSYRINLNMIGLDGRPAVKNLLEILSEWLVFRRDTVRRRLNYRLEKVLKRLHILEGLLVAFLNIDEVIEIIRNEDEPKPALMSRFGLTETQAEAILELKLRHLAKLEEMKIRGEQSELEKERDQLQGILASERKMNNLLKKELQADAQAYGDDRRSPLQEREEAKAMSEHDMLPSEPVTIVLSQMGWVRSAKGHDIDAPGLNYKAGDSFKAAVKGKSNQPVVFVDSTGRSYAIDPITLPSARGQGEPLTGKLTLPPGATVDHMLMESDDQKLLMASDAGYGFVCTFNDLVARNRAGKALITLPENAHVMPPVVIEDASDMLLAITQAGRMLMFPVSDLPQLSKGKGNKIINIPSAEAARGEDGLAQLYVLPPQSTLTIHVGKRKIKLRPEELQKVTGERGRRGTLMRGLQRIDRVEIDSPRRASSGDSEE

SMILES | Minimum inhibitory concentration (MRSA (NCIM 5021) [1]) [µg/mL] | Minimum inhibitory concentration (MIC) S. a [2] | Minimum inhibitory concentration (MRSA (ATCC43300) [3]) [µg/mL] | Minimum inhibitory concentration (MIC) B. s [4] | Minimum inhibitory concentration (MIC) K. p [5] | Minimum inhibitory concentration (MIC) E. c [6] | Minimum inhibitory concentration (MIC) S. t [7] | Minimum inhibitory concentration (MIC) M. t [8] | Minimum inhibitory concentration (MIC) P. a [9] | IC50 against E. coli ParE enzyme (E. coli ParE enzyme) [µg/mL] | MBC (MRSA (NCIM 5021) [10]) [µg/mL] | MBC/MIC (MRSA (NCIM 5021) [10]) | MBC (MRSA (ATCC43300) [11]) [µg/mL] | MBC/MIC (MRSA (ATCC43300) [11]) | Minimum inhibitory concentration (MIC) S. e [12] | MBC [13] [µg/mL] | MBC/MIC [13] | Minimum inhibitory concentration [14] [µg/mL] | further results
O=C(COc1ccccc1NC(=O)CCl)Nc1ccc(Cl)cc1 [Compound 2] | 2.41 ± 0.65 (≈ 6.82 µM) | 0.69 | 1.34 ± 0.49 (≈ 3.79 µM) | 0.72 | 2.95 | 2.45 | 2.56 | 4.52 | 2.59 | 2.33 (≈ 6.6 µM) | 4.8 ± 0.21 (≈ 13.6 µM) | 2 | 2.71 ± 0.21 (≈ 7.67 µM) | 2 | 0.92 | 2.00 ± 0.01 (≈ 5.66 µM) | 2 | 1.01 ± 0.19 (≈ 2.86 µM) | 
O=C(COc1ccccc1NC(=O)CCl)Nc1ccc(C(=O)O)cc1 [Compound 3] | 1.84 ± 0.13 (≈ 5.07 µM) | 4.23 | 1.79 ± 0.21 (≈ 4.93 µM) | 6.30 | 0.75 | 0.82 | 1.52 | 2.31 | 0.67 | 0.95 ± 0.09 (≈ 2.62 µM) | 1.84 ± 0.13 (≈ 5.07 µM) | 1 | 1.79 ± 0.21 (≈ 4.93 µM) | 1 | 3.04 | 1.75 ± 0.09 (≈ 4.82 µM) | 1 | 1.81 ± 0.15 (≈ 4.99 µM) | CC50 (Vero cells [15]): 178.8742 µg/mL (≈ 493 µM); SI (CC50/IC50) (Vero cells [16]): 188.2886
O=C(CCl)Nc1ccccc1OCC(=O)Nc1ccc([N+](=O)[O-])cc1[N+](=O)[O-] [Compound 7] | 0.95 ± 0.06 (≈ 2.32 µM) | 5.78 | 0.85 ± 0.09 (≈ 2.08 µM) | 6.56 | 1.25 | 1.52 |  | 1.02 | 0.67 | 0.95 ± 0.06 (≈ 2.32 µM) | 0.95 ± 0.06 (≈ 2.32 µM) | 1 | 0.85 ± 0.09 (≈ 2.08 µM) | 1 | 8.62 | 0.83 ± 0.1 (≈ 2.03 µM) | 1 | 0.83 ± 0.05 (≈ 2.03 µM) | CC50 (Vero cells [15]): 224.7306 µg/mL (≈ 550 µM); SI (CC50/IC50) (Vero cells [16]): 236.5585
O=C(COc1ccccc1NC(=O)CCl)Nc1ccccc1 [Compound 9] | 1.71 ± 0.16 (≈ 5.36 µM) | 1.52 | 1.75 ± 0.21 (≈ 5.49 µM) | 4.42 | 3.81 | 4.25 | 2.35 | 8.65 | 3.35 | 2.80 (≈ 8.78 µM) | 4.70 ± 0.41 (≈ 14.7 µM) | 3 | 6.29 ± 0.08 (≈ 19.7 µM) | 4 | 0.98 | 3.68 ± 0.29 (≈ 11.5 µM) | 2 | 1.64 ± 0.10 (≈ 5.14 µM) | 
Cc1ccc(C(=O)NNC(=O)COc2ccccc2NC(=O)CCl)cc1 [Compound 12] | 2.65 ± 0.46 (≈ 7.05 µM) | 3.12 | 0.96 ± 0.14 (≈ 2.55 µM) | 3.72 | 0.67 | 1.26 | 1.98 | 3.21 | 1.45 | 2.34 (≈ 6.23 µM) | 4.4 ± 0.15 (≈ 11.7 µM) | 2 | 0.96 ± 0.14 (≈ 2.55 µM) | 1 | 2.35 | 0.86 ± 0.03 (≈ 2.29 µM) | 1 | 0.86 ± 0.03 (≈ 2.29 µM) | 
Cc1ccc(C(=O)NNC(=O)COc2ccc3ccccc3c2)cc1 [Compound 22] | 0.90 ± 0.04 (≈ 2.69 µM) | 1.16 | 0.76 ± 0.06 (≈ 2.27 µM) | 3.63 | 0.81 | 1.23 | 0.77 | 0.89 | 0.82 | 1.01 (≈ 3.02 µM) | 0.90 ± 0.04 (≈ 2.69 µM) | 1 | 0.76 ± 0.06 (≈ 2.27 µM) | 1 | 1.04 | 0.89 ± 0.01 (≈ 2.66 µM) | 1 | 0.89 ± 0.01 (≈ 2.66 µM) | 
CC1(C)S[C@@H]2[C@H](NC(=O)[C@H](N)c3ccccc3)C(=O)N2[C@H]1C(=O)O [ampicillin] |  |  |  |  |  |  |  |  |  |  |  |  |  |  |  |  |  |  | reduction in biofilm [17]: 63%
